Data on two molecules can be found in patent publication US9532977B2, “Controlled release oral dosage forms of poorly soluble drugs and uses thereof” (Celgene Corporation, priority 2010, dated 2017).

≈ marks a conversion by molar mass, not a printed value.

A short description of data set [1]: aqueous room temperature solubility. It counts as physicochemical. Conditions: for solubility: water, aqueous, room temperature. The method, then: (§1) The aqueous room temperature solubilities of Compounds A and Compound B is 6.9 μg/mL and 2.0 μg/mL, respectively. Daily doses of Compound A ranging from 10 mg to 100 mg per day have been administered to approximately 1000 subject in clinical studies to date. […] Therefore a controlled release dosage is clearly needed for Compound A.

A short description of data set [2]: pharmacokinetic parameters of Compound A in monkeys. The settings on record: monkey, in vivo, 10 mg/kg PO. The procedure:
as §1

As to `CCOc1cc([C@@H](CS(C)(=O)=O)N2C(=O)c3cccc(NC(C)=O)c3C2=O)ccc1OC` [Compound A, (S)—N-{2-[1-(3-ethoxy-4-methoxy-phenyl)-2-methanesulfonylethyl]-1,3-dioxo-2,3-dihydro-1H-isoindol-4-yl}acetamide], the “aqueous solubility of amorphous form compared to crystalline forms” value in data set [1] (amorphous form vs crystalline forms) is listed as “greater aqueous solubility”. Besides, the solubility in data set [1] was 6.9 µg/mL (≈ 15 µM). In data set [2], this molecule showed a half-life of about 120 min.

Consider `CCOc1cc([C@@H](CS(C)(=O)=O)N2Cc3cccc(NC(=O)C4CC4)c3C2=O)ccc1OC` [Compound B, cyclopropanecarboxylic acid {2-[(1S)-1-(3-ethoxy-4-methoxy-phenyl)-2-methanesulfonyl-ethyl]-3-oxo-2,3-dihydro-1H-isoindol-4-yl}-amide], for which the solubility in data set [1] came out at 2 µg/mL (≈ 4.23 µM).

For orientation: solubility means how much of the substance goes into solution per volume. A low value points to a poorly soluble substance. For orientation: half-life means the time in which the quantity being followed falls by half.
